Experimental data reported in patent US20200276181A1, “THIENOISOQUINOLINES AND THEIR DERIVATIVES FOR TARGETING TUBULIN, CH-TOG, AURORA A KINASE, TPX2, CDK5RAP2 AND/OR ASPM” (VALORBEC, SEC, priority 2017, published 2020).

What was measured:
[1] = test system: HeLa (cervical adenocarcinoma) cells; assay: Cell viability IC50 (Table 3); type: cell-based, human
Procedure: (§1) To date, 30 variants with different structural modifications have been made. […] In particular, it is shown that C75 causes death in multiple cancer cells with IC50 values in the 100-400 nM range, including breast cancers (MCF7, BT549), lung cancer (A549), colorectal cancer (HCT116) in addition to HeLa cells (cervical cancer).

A549 cells [2] = assay: IC50 of derivatives (Table 5); type: cell-based, human; details: for IC50: Table 5, cell line only named in b213 (A549)
[3] = test system: MCF7, BT549, A549, HCT116, HeLa cells; assay: Viability in cancer vs non-cancer cell lines, summary of Table 3; type: cell-based, human
Procedure: as §1

A549 cells [4] = assay: Spindle morphology, DAPI and tubulin staining; type: cell-based, human; details: 300 nM, 4 hours
Procedure: FIG. 1A) is a line graph showing changes in the percentage of viable HFF-1, HeLa, A549 and HCT 116 cells after treatment with a range of C75 concentrations for 3 population doubling times (N=3). […] FIG. 1C) is a line graph showing the percentage of HeLa and HFF1 cells in mitosis after treatment with various concentrations of C75 for 8 hours. The bars indicate standard deviation. FIG. 1D) is a series of images showing cells that were fixed and co-stained for tubulin (microtubules) and DAPI (DNA). […] The scale bar for the cells is 10 μm. […] FIG. 1F) is a cartoon schematic showing the key features of a metaphase cell.

HCT116 spheroids = assay: Multicellular tumour spheroids; type: cell-based; details: 10 nM paclitaxel or 250 nM C75 alone, 6 days
Procedure: FIGS. 5A, 5B, 5C, 5D, 5E, 5F, 5G, 5H, 5I, 5J, 5K, 5L and 5M show how C75 disrupts or reduces the growth of HeLa, HCT116 and A549 spheroids. FIG. 5A) images show HeLa spheroids over time (3 days) before and after treatment with control (1 μM C87; n=10), 250 nM (n=6) or 500 nM (n=10) of C75. The scale bar is 100 μm. FIG. 5B) is a series images of HeLa spheroids after three days of treatment with control (500 nM C87) or 500 nM C75. The spheroids were stained for fluorescein diacetate (to detect live cells) and propidium iodide (to detect dead cells). […] The scale bar is 100 μm. FIG. 5C) is a line graph showing the change in spheroid area (μm^2) for each day and treatment as indicated. Bars show standard deviation and the asterisks are p<0.05 as determined by the student's t test. FIG. 5D) images show HeLa spheroids over 3 days before and after treatment with empty nanoparticles (control; n=3) or 250 nM of nanoparticle-encapsulated C75 (n=3). The scale bar is 100 μm. […] Bars show standard deviation and the asterisks are p<0.05 as determined by the student's t test. FIG. 5F) is a series of images of HCT116 spheroids treated with control (1 μM C87; n=10), 500 nM C75 (n=10) and 1 μM C75 (n=10). FIG. 5G) is a series images of HCT116 spheroids after six days of treatment with control (1 μM C87) or 1 μM C75. The spheroids were stained for fluorescein diacetate (live cells) and propidium iodide (dead cells). […] FIG. 5H) is a line graph showing the growth in surface area (%) of HCT116 spheroids treated with control (1 μM C87), 500 nM C75 and 1 μM C75 after six days. FIG. 5I) is a series of images of A549 spheroids treated with control (1 μM C87, n=6), 500 nM C75 (n=6), and 1 μM C75 (n=6) over 5 days. The scale bar is 100 μm. FIG. 5J) is a series of images of A549 spheroids after six days of treatment with control (750 nM C87) or 1 μM C75. The spheroids were stained for fluorescein diacetate (live cells) and propidium iodide (dead cells). […] Bars show standard deviation and the asterisks are p<0.05 as determined by the student's t test. FIG. 5L) images show A549 spheroids over 6 days before and after treatment with empty nanoparticles (control; n=3) or 500 nM of nanoparticle-encapsulated C75 (n=3). The scale bar is 100 μm. […] Bars show standard deviation and the asterisks are p<0.05 as determined by the student's t test.
FIG. 11A) is a series of images of HCT116 spheroids treated with control (DMSO), 10 nM paclitaxel, 250 nM C75 or both for 6 days. […] The scale bar for the images is 100 μm. […] As shown in the images, adding paclitaxel and C75 in combination led to regression in spheroid size compared to each treatment on its own.
The thienoisoquinoline compounds may also have potential for use in combinatorial therapies. […]

SMILES	IC50 [1] [nM]	IC50 (A549 cells [2]) [nM]	other results
Cc1ccc(S(=O)(=O)N2Cc3ccccc3-c3sccc32)cc1 [Compound C91]	–	–	efficacy (effect on viability) in cancer cells vs. non-cancer cells [3]: higher efficacy; IC50 (A549 cells [2]; Homo sapiens): > 1000 nM
Cc1cccc(S(=O)(=O)N2Cc3ccccc3-c3sc(Br)cc32)c1 [Compound C93]	> 1000	–	–
O=S(=O)(c1ccc(C(F)(F)F)cc1)N1Cc2ccccc2-c2sccc21 [Compound C108]	> 1000	> 1000	–
CC(C)(C)c1ccc(S(=O)(=O)N2Cc3ccccc3-c3sccc32)cc1 [Compound C109]	–	> 1000	–
COc1ccc(S(=O)(=O)N2Cc3cccc(N)c3-c3sccc32)cc1 [Compound C132]	–	> 1000	–
COc1ccc(S(=O)(=O)N2Cc3c(Br)ccc(N)c3-c3sc(Br)cc32)cc1 [Compound C133]	–	> 1000	–
COc1ccc(S(=O)(=O)N2Cc3ccccc3-c3sc(Br)c(C)c32)cc1 [Compound C139]	–	> 1000	–
COc1ccc(S(=O)(=O)N2Cc3ccccc3-c3sc(C(=O)O)cc32)cc1 [Compound C141]	–	> 1000	–
Cc1ccc(S(=O)(=O)N2Cc3ccccc3-c3sc(C(=O)O)cc32)cc1 [Compound C143]	–	> 1000	–
O=S(=O)(c1ccc(C(F)(F)F)cc1)N1Cc2ccccc2-c2sc(Br)cc21 [Compound C200]	> 1000	> 1000	–
CC(C)(C)c1ccc(S(=O)(=O)N2Cc3ccccc3-c3sc(Br)cc32)cc1 [Compound C201]	> 1000	> 1000	–
COc1ccc(S(=O)(=O)N2Cc3cc4c(cc3-c3sccc32)OCO4)cc1 [Compound C300]	–	> 1000	–
COc1ccc(S(=O)(=O)N2Cc3cc4c(cc3-c3sc(Br)cc32)OCO4)cc1 [Compound C301]	–	> 1000	–
CC(=O)O[C@H]1C(=O)[C@@]2(C)[C@H]([C@H](OC(=O)c3ccccc3)[C@]3(O)C[C@H](OC(=O)[C@H](O)[C@@H](NC(=O)c4ccccc4)c4ccccc4)C(C)=C1C3(C)C)[C@]1(OC(C)=O)CO[C@@H]1C[C@@H]2O [paclitaxel, reference compound]	–	–	spheroid growth, single drug (HCT116 spheroids): failed to grow

Further lines, with some results ahead:

IC50 [1] [nM]	IC50 (A549 cells [2]) [nM]	SMILES	other results
> 1000	> 1000	Cc1cccc(S(=O)(=O)N2Cc3ccccc3-c3sccc32)c1 [Compound C39]	–
> 1000	> 1000	Cc1ccc(S(=O)(=O)N2Cc3ccccc3-c3sc(-c4ccccc4)cc32)cc1 [Compound C71]	–
> 1000	> 1000	Cc1ccc(S(=O)(=O)N2Cc3ccccc3-c3sc(Br)cc32)cc1 [Compound C74]	–
–	635	COc1ccc(S(=O)(=O)N2Cc3ccccc3-c3scc(C)c32)cc1 [Compound C127]	–
–	549	COc1ccc(S(=O)(=O)N2Cc3ccccc3-c3sc(Cl)c(C)c32)cc1 [Compound C128]	–
–	439	COc1ccc(S(=O)(=O)N2Cc3cccc([N+](=O)[O-])c3-c3sccc32)cc1 [Compound C130]	–
–	801	COc1ccc(S(=O)(=O)N2Cc3cccc([N+](=O)[O-])c3-c3sc(Br)cc32)cc1 [Compound C131]	–
–	416	COc1ccc(S(=O)(=O)N2Cc3ccccc3-c3sc(C=O)c(C)c32)cc1 [Compound C138]	–
–	260	COc1ccc(S(=O)(=O)N2Cc3ccccc3-c3sc(C=O)cc32)cc1 [Compound C140]	spindle phenotype (A549 cells [4]): causes spindle phenotypes similar to C75; efficacy relative to C75 (A549 cells [2]; A549 cells): higher efficacy
–	456	Cc1ccc(S(=O)(=O)N2Cc3ccccc3-c3sc(C=O)cc32)cc1 [Compound C142]	–
204	434	COc1ccc(S(=O)(=O)N2Cc3ccccc3-c3sc(Cl)cc32)cc1 [Compound C208]	–
